Measured values taken from ChEMBL document CHEMBL1201862, “PubChem BioAssay data set” (2004).
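Values below derive from 48-hour exposures of cells grown in 96-well plates, with endpoints linearly interpolated between the two concentrations bracketing the appropriate inhibition level. GI50 = concentration required for 50% inhibition of growth.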 Calls of active or inactive are those of the source. Cut-off read from the data, not from the text of the source: active = GI50 up to about 1.1 µM and inactive = higher.

Tests used:
Assay in all cases: NCI-60 cell line screen, 48 h
[1] = tested on: RPMI-8226
[2] = tested on: HCT-15
[3] = tested on: HT-29
[4] = tested on: SK-OV-3
[5] = tested on: HL-60
[6] = tested on: OVCAR-4
[7] = tested on: SK-MEL-2
[8] = tested on: EKVX
[9] = tested on: SW-620
[10] = tested on: MDA-MB-231
[11] = tested on: T47D
[12] = tested on: K562
[13] = tested on: HOP-62
[14] = tested on: MCF7
[15] = tested on: SK-MEL-28
[16] = tested on: UACC-62
[17] = tested on: HCT-116
[18] = tested on: A498
[19] = tested on: 786-0

Compound	GI50 [1]	GI50 [2]	GI50 [3]	GI50 [4]	GI50 [5]	GI50 [6]	GI50 [7]	GI50 [8]	GI50 [9]	GI50 [10]	GI50 [11]	GI50 [12]	GI50 [13]	GI50 [14]	GI50 [15]	GI50 [16]	GI50 [17]	GI50 [18]	GI50 [19]
O=C(CCCc1ccccn1)c1ccccc1	> 100 µM (inactive)	> 100 µM	> 100 µM (inactive)	> 100 µM (inactive)	> 100 µM (inactive)	> 100 µM (inactive)	> 100 µM (inactive)	> 100 µM (inactive)	> 100 µM (inactive)	> 100 µM (inactive)	> 100 µM (inactive)	> 100 µM (inactive)	> 100 µM (inactive)	> 100 µM (inactive)	> 100 µM (inactive)	> 100 µM (inactive)	> 100 µM (inactive)	> 100 µM (inactive)	> 100 µM (inactive)
O=C(Cn1c(-c2ccccc2)cc2ccccc21)N1CCOCC1	> 100 µM (inactive)	> 100 µM	> 100 µM (inactive)	> 100 µM (inactive)	> 100 µM (inactive)	> 100 µM (inactive)	> 100 µM (inactive)	> 100 µM (inactive)	> 100 µM (inactive)	34.2 µM (inactive)	> 100 µM (inactive)	> 100 µM (inactive)	32.7 µM (inactive)	> 100 µM (inactive)	> 100 µM (inactive)	> 100 µM (inactive)	> 100 µM (inactive)	> 100 µM (inactive)	41.4 µM (inactive)
Cc1cc(C)c2c(=O)cc(-c3ccccc3)[nH]c2c1	2.02 µM (inactive)	0.828 µM	1.17 µM (inactive)	2.52 µM (inactive)	0.479 µM (active)	9.71 µM (inactive)	8.17 µM (inactive)	4.47 µM (inactive)	0.738 µM (active)	8.22 µM (inactive)	12.5 µM (inactive)	0.57 µM (active)	5.14 µM (inactive)	3.01 µM (inactive)	2.52 µM (inactive)	1.6 µM (inactive)	0.889 µM (active)	1.35 µM (inactive)	2.07 µM (inactive)
CC[C@@]1(O)C(=O)OCc2c1cc1n(c2=O)Cc2c-1nc1ccccc1c2/C=N\NC(=O)C(N)CC(C)C (stereo not given in full)	0.024 µM (active)	0.24 µM	0.228 µM (active)	< 0.0212 µM (active)	< 0.01 µM (active)	0.44 µM (active)	0.6 µM (active)	0.438 µM (active)	0.0887 µM (active)	1.25 µM (inactive)	< 0.01 µM (active)	0.0267 µM (active)	< 0.01 µM (active)	< 0.01 µM (active)	0.605 µM (active)	< 0.01 µM (active)	0.0161 µM (active)	0.0314 µM (active)	< 0.01 µM (active)
COc1ccc(N2CN3OC(=O)N(c4ccc(OC)cc4)[C@@]3(c3ccccc3)C2)cc1	18.7 µM (inactive)	5.18 µM	6.49 µM (inactive)	20.8 µM (inactive)	2.77 µM (inactive)	20.3 µM (inactive)	5.51 µM (inactive)	23.2 µM (inactive)	6.04 µM (inactive)	10 µM (inactive)	14.3 µM (inactive)	4.02 µM (inactive)	32.6 µM (inactive)	16.9 µM (inactive)	34.5 µM (inactive)	13.6 µM (inactive)	18.7 µM (inactive)	19.5 µM (inactive)	51.1 µM (inactive)
CC(/C=C/c1ccc([N+](=O)[O-])o1)=N/N1CC(CN2CCOCC2)OC1=O (stereo not given)	9.64 µM (inactive)	16.5 µM	31.4 µM (inactive)	52.2 µM (inactive)	25.3 µM (inactive)	14 µM (inactive)	16.9 µM (inactive)	30.9 µM (inactive)	30.2 µM (inactive)	23.6 µM (inactive)	16.5 µM (inactive)	16.9 µM (inactive)	26.9 µM (inactive)	13.1 µM (inactive)	17.3 µM (inactive)	17.3 µM (inactive)	11.4 µM (inactive)	32.6 µM (inactive)	28.1 µM (inactive)
N=C(N)NS(=O)(=O)c1ccc(NC(=O)c2ccc3nc4ccccc4c(Nc4ccc(S(N)(=O)=O)cc4)c3c2)cc1	> 100 µM (inactive)	> 100 µM	> 100 µM (inactive)	> 100 µM (inactive)	> 100 µM (inactive)	> 100 µM (inactive)	> 100 µM (inactive)	> 100 µM (inactive)	> 100 µM (inactive)	> 100 µM (inactive)	> 100 µM (inactive)	> 100 µM (inactive)	> 100 µM (inactive)	> 100 µM (inactive)	> 100 µM (inactive)	> 100 µM (inactive)	> 100 µM (inactive)	> 100 µM (inactive)	> 100 µM (inactive)
NCc1ccc(-c2ccc(CN)s2)s1	> 100 µM (inactive)	> 100 µM	> 100 µM (inactive)	83.8 µM (inactive)	> 100 µM (inactive)	> 100 µM (inactive)	> 100 µM (inactive)	> 100 µM (inactive)	> 100 µM (inactive)	> 100 µM (inactive)	69.8 µM (inactive)	> 100 µM (inactive)	> 100 µM (inactive)	44 µM (inactive)	> 100 µM (inactive)	14.6 µM (inactive)	> 100 µM (inactive)	1.22 µM (inactive)	> 100 µM (inactive)
c1ccc2c(c1)N=c1cc3c(cc1N2)=NC12CCCCC1CC1=C(CCCC1)N32 (stereo not given)	2.07 µM (inactive)	5.82 µM	3.18 µM (inactive)	> 10 µM (inactive)	3.04 µM (inactive)	2.15 µM (inactive)	3.44 µM (inactive)	4.53 µM (inactive)	5.47 µM (inactive)	4.16 µM (inactive)	3.94 µM (inactive)	2.2 µM (inactive)	6.53 µM (inactive)	3.3 µM (inactive)	3.3 µM (inactive)	3.32 µM (inactive)	3.24 µM (inactive)	6.52 µM (inactive)	2.89 µM (inactive)
O=[N+]([O-])c1cccc2nccc(NCCN3CCOCC3)c12	7.94 µM (inactive)	9.35 µM	13.5 µM (inactive)	35.2 µM (inactive)	10.6 µM (inactive)	8.99 µM (inactive)	14.7 µM (inactive)	10.7 µM (inactive)	8.91 µM (inactive)	21.7 µM (inactive)	23 µM (inactive)	11.8 µM (inactive)	15.5 µM (inactive)	9.46 µM (inactive)	17.9 µM (inactive)	> 10 µM (inactive)	13.4 µM (inactive)	13.2 µM (inactive)	25.2 µM (inactive)
CCNc1cc2c3c(c1)CCCN3CCC2	4.46 µM (inactive)	19.6 µM	6.78 µM (inactive)	20 µM (inactive)	11.8 µM (inactive)	13 µM (inactive)	15.3 µM (inactive)	4.03 µM (inactive)	21.3 µM (inactive)	6.93 µM (inactive)	18.1 µM (inactive)	4.01 µM (inactive)	14.6 µM (inactive)	40.7 µM (inactive)	31.3 µM (inactive)	17.7 µM (inactive)	6.67 µM (inactive)	23.3 µM (inactive)	9.66 µM (inactive)
CCNCC(O)c1ccc(N)c([N+](=O)[O-])c1 (stereo not given)	> 100 µM (inactive)	> 100 µM	> 100 µM (inactive)	> 100 µM (inactive)	> 100 µM (inactive)	21.4 µM (inactive)	> 100 µM (inactive)	> 100 µM (inactive)	> 100 µM (inactive)	> 100 µM (inactive)	> 100 µM (inactive)	> 100 µM (inactive)	> 100 µM (inactive)	> 100 µM (inactive)	> 100 µM (inactive)	> 100 µM (inactive)	> 100 µM (inactive)	> 100 µM (inactive)	> 100 µM (inactive)
CC1(O)CC(=O)c2c(cc3ccc(-c4c5c(c(O)c6c(O)cccc46)C(=O)CC(C)(O)C5)c(O)c3c2O)C1 (stereo not given)	0.0509 µM (active)	0.09 µM	0.409 µM (active)	2.01 µM (inactive)	0.16 µM (active)	0.27 µM (active)	0.271 µM (active)	0.562 µM (active)	0.468 µM (active)	0.311 µM (active)	0.562 µM (active)	0.298 µM (active)	0.296 µM (active)	0.199 µM (active)	0.326 µM (active)	1.46 µM (inactive)	0.0647 µM (active)	0.465 µM (active)	0.435 µM (active)
O=S(=O)(O)c1ccc(/N=N/c2c(O)ccc3ccccc23)cc1	> 100 µM (inactive)	> 100 µM	> 100 µM (inactive)	> 100 µM (inactive)	> 100 µM (inactive)	> 100 µM (inactive)	> 100 µM (inactive)	> 100 µM (inactive)	> 100 µM (inactive)	> 100 µM (inactive)	> 100 µM (inactive)	> 100 µM (inactive)	> 100 µM (inactive)	> 100 µM (inactive)	> 100 µM (inactive)	> 100 µM (inactive)	> 100 µM (inactive)	> 100 µM (inactive)	> 100 µM (inactive)
COC(=O)c1ccc2cc(O)c(O)cc2c1	29.4 µM (inactive)	33 µM	37.4 µM (inactive)	70.8 µM (inactive)	> 100 µM (inactive)	43.6 µM (inactive)	39.5 µM (inactive)	20.5 µM (inactive)	51.4 µM (inactive)	60.7 µM (inactive)	25.8 µM (inactive)	33.9 µM (inactive)	56 µM (inactive)	42.9 µM (inactive)	46.9 µM (inactive)	26.2 µM (inactive)	41 µM (inactive)	30.8 µM (inactive)	41.8 µM (inactive)
